Assays:
ALOX12 = ALOX12 catalytic activity in cell lysates (12S-HETE ELISA); type: biochemical, human; details: lysate of TPA-induced MLC, 50 μM arachidonic acid, 15 min, 37° C.; vehicle THP-1 lysate ~6 ng
Text: We measured ALOX12 enzyme activity of THP-1 and TPA-induced MLC cell lysates and compared them to establish the biological relevance of lncRNA-mediated downregulation of ALOX12 protein level. We used a cell-free system to avoid any limitations of intracellular arachidonic acid uptake by an in vitro cell-based system. As well, we used a platelet-derived protein-lysate as a positive control for ALOX12 enzyme activity. ALOX12 was originally discovered and characterized as an arachidonic acid peroxidizing enzyme in platelets.
ALOX12 catalytic activity was measured in a cell-free system using cell lysates derived from unactivated human platelets (positive control) and Phorbol ester (12-O-Tetradecanoylphorbol 13-acetate: TPA)/vehicle (DMSO/ethanol)-treated THP-1. ALOX12 converts arachidonate to the bioactive lipid 12(S)-hydroperoxyeicosatetraenoate (12S-HpETE). […] The cell lysates prepared in 1×PBS supplemented with 0.5% NP40, 1× Halt protease and phosphatase inhibitor cocktail 1 were incubated with 50 μM arachidonic acid (catalogue number: A0781, Tokyo Chemical Industry, USA) for 15 min at 37° C. and the amount of 12S-HETE was quantitatively measured using a commercially available Enzyme-Linked ImmunoAssay (ELISA) kit (catalogue number: ADI-900-050, Enzo Life Sciences Inc., USA) as per the manufacturer's instructions. […]

ALOX12-AS1-201 lncRNA [1] = assay: Nucleo-cytoplasmic translocation of ALOX12-AS1-201 in THP-1 cells (FISH, fractionation, quantitative RT-PCR); type: cell-based, human
Description: Therefore, we induced differentiation of monocytic THP-1 cells to macrophage-like cells (MLCs) with 100 nM TPA [91, 92] and monitored the ALOX12 protein level as well as nucleo-cytoplasmic translocation of ALOX12-AS1-201. […] Based on these observations, we performed nuclear and cytoplasmic fractionation at 72 hours of TPA treatment.
Total RNA from different cell lines was extracted with Trizol reagent (Catalog number: 15596026; ThermoFisher Scientific, Canada) as per the manufacturer's recommended protocol. Total RNA (1-5 μg) was treated with RNase-free DNase I (Catalog number: M0303, New England Biolabs Inc., USA) at 37° C. for 15 min, subsequently heat-inactivated at 75° C. for 10 min and used for cDNA synthesis. […] Absolute quantification of ALOX12-AS1 lncRNA isoforms was performed in a Mastercycler®ep realplex real-time PCR system (Eppendorf, Hamburg, Germany) using SYBR green dye (Catalog number: S7563; ThermoFisher Scientific). […] Real-time PCR data quality control calculations were determined by the SAS program as described previously [101] and the calculated PCR efficiency was between 95%-99%. Quantitative RT-PCR was conducted for different cell-line derived RNAs, and the specificity of each amplified product was confirmed by melting curve analysis. Results were expressed as copy number of specific isoforms per 100 ng of total RNA.

ALOX12-AS1-201 lncRNA [2] = assay: Nucleo-cytoplasmic translocation of ALOX12-AS1-201 in HEK293 cells (FISH, fractionation, quantitative RT-PCR); type: cell-based, human; details: 10 μM TPA, 1 hour
Description: Phorbol ester (12-O-Tetradecanoylphorbol 13-acetate: TPA) is an activator of protein kinase C (PKC) that has been frequently used for inducing differentiation in different cell types including myeloid cells. […] Therefore, we treated HEK293 cells with 10 μM TPA for 1 hour and observed ALOX12-AS1-201 nucleo-cytoplasmic translocation as well as measured ALOX12 protein level.
Total RNA from different cell lines was extracted with Trizol reagent (Catalog number: 15596026; ThermoFisher Scientific, Canada) as per the manufacturer's recommended protocol. […] Absolute quantification of ALOX12-AS1 lncRNA isoforms was performed in a Mastercycler®ep realplex real-time PCR system (Eppendorf, Hamburg, Germany) using SYBR green dye (Catalog number: S7563; ThermoFisher Scientific). […] Real-time PCR data quality control calculations were determined by the SAS program as described previously and the calculated PCR efficiency was between 95%-99%. Quantitative RT-PCR was conducted for different cell-line derived RNAs, and the specificity of each amplified product was confirmed by melting curve analysis. Results were expressed as copy number of specific isoforms per 100 ng of total RNA.
For RNA-FISH, cells were grown on coverslips and human tissue cryosections were adhered to glass slides. […] The cells were then fixed and analyzed by RNA-FISH. […]

## CCCCCCCCCCCCCC(=O)O[C@@H]1[C@@H](C)[C@@]2(O)[C@@H](C=C(CO)C[C@]3(O)C(=O)C(C)=C[C@@H]23)[C@@H]2C(C)(C)[C@]12OC(C)=O [TPA, 12-O-Tetradecanoylphorbol 13-acetate]
ALOX12
  12S-HETE production: ~1.3 ng
ALOX12-AS1-201 lncRNA [1]; THP-1 cells, 100 nM TPA, FISH
  time to translocation of ALOX12-AS1-201 lncRNA to the cytosol: ≤ 1 h
ALOX12-AS1-201 lncRNA [1]; TPA-differentiated MLCs, 72 hours, vs vehicle (DMSO) treated THP-1 cells, quantitative RT-PCR
  ALOX12-AS1-201 cytosolic abundance: significant increase
ALOX12-AS1-201 lncRNA [2]; FISH, vs vehicle (DMSO)
  ALOX12-AS1-201 nucleo-cytoplasmic translocation: dramatic nucleo-cytoplasmic translocation
ALOX12-AS1-201 lncRNA [2]; subcellular fractionation and quantitative RT-PCR
  cytosolic ALOX12-AS1-201 lncRNA abundance: significant increase

— US20230407296A1, “Method to Regulate ALOX12-AS1 IncRNA-Mediated Alteration of ALOX12 Protein and to Screen for Novel Drugs to Alter ALOX12 Protein Level” (priority 2021, published 2023)
